Assay results as given in ChEMBL document CHEMBL1201862, “PubChem BioAssay data set” (2004).
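Step 1: Grow cells in 96-well plates. Step 2: Expose to compound for 48 hours at 5 concentrations. Step 3: Interpolate endpoints linearly; if unreached, use highest concentration. The concentration for 50% growth inhibition is given as GI50.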 Active and inactive are the calls of the source. No stated cut-off is given here; in the data, active = GI50 up to about 1.1 µM and inactive = higher.

Legend:
Experiment in all cases: NCI-60 cell line screen, 48 h
SK-MEL-5 = system: SK-MEL-5
HCT-116 = system: HCT-116
MDA-MB-231 = system: MDA-MB-231
PC-3 = system: PC-3
MDA-MB-435 = system: MDA-MB-435
MCF7 = system: MCF7
HCT-15 = system: HCT-15
A549 = system: A549
UACC-62 = system: UACC-62
SF-268 = system: SF-268
A498 = system: A498
NCI-H226 = system: NCI-H226
HOP-92 = system: HOP-92
HOP-62 = system: HOP-62
UO-31 = system: UO-31
OVCAR-3 = system: OVCAR-3
KM12 = system: KM12
SF-539 = system: SF-539
HCC 2998 = system: HCC 2998
SR = system: SR

| Structure (SMILES) | GI50 (SK-MEL-5) | GI50 (HCT-116) | GI50 (MDA-MB-231) | GI50 (PC-3) | GI50 (MDA-MB-435) | GI50 (MCF7) | GI50 (HCT-15) [µM] | GI50 (A549) | GI50 (UACC-62) | GI50 (SF-268) | GI50 (A498) | GI50 (NCI-H226) | GI50 (HOP-92) | GI50 (HOP-62) | GI50 (UO-31) | GI50 (OVCAR-3) | GI50 (KM12) | GI50 (SF-539) | GI50 (HCC 2998) | GI50 (SR) |
| --- | --- | --- | --- | --- | --- | --- | --- | --- | --- | --- | --- | --- | --- | --- | --- | --- | --- | --- | --- | --- |
| O=C(O)CNC(=O)c1ccc([As](=O)(O)O)cc1 | > 100 µM (inactive) | > 100 µM (inactive) | > 100 µM (inactive) | > 100 µM (inactive) | > 100 µM (inactive) | > 100 µM (inactive) | > 100 | > 100 µM (inactive) | > 100 µM (inactive) | > 100 µM (inactive) | > 100 µM (inactive) | > 100 µM (inactive) | > 100 µM (inactive) | > 100 µM (inactive) | > 100 µM (inactive) | > 100 µM (inactive) | > 100 µM (inactive) |  |  |  |
| O=P1(c2ccccc2)C(c2ccccc2)CCC1c1ccccc1 (stereo not given) | 37.2 µM (inactive) | 35.6 µM (inactive) | 42.9 µM (inactive) | 33.6 µM (inactive) | 34.9 µM (inactive) | > 100 µM (inactive) | 28.8 | 65.8 µM (inactive) | 50.7 µM (inactive) | > 100 µM (inactive) |  | 91.8 µM (inactive) | 45 µM (inactive) | > 100 µM (inactive) | 66.1 µM (inactive) | 53 µM (inactive) | 30 µM (inactive) | > 100 µM (inactive) | > 100 µM (inactive) |  |
| CN(C)c1n/c(=N/Cc2cccnc2)ss1 | > 10 µM (inactive) |  | > 10 µM (inactive) | > 10 µM (inactive) | > 10 µM (inactive) |  | > 10 | > 10 µM (inactive) | > 10 µM (inactive) | > 10 µM (inactive) |  |  | > 10 µM (inactive) | > 10 µM (inactive) |  |  | > 10 µM (inactive) |  |  | 2.09 µM (inactive) |
| CC1OC23CCCCC2C(C#N)(C#N)C1(C#N)C(=N)O3 (stereo not given) | 16.3 µM (inactive) | 16.6 µM (inactive) | 15.7 µM (inactive) | 24.4 µM (inactive) | 20.8 µM (inactive) | 20.7 µM (inactive) | 15.3 | 96.2 µM (inactive) | > 10 µM (inactive) | 24.7 µM (inactive) | 27.2 µM (inactive) | > 100 µM (inactive) | 13.8 µM (inactive) |  | > 10 µM (inactive) | 17.7 µM (inactive) | 24.3 µM (inactive) | 21.8 µM (inactive) | 25.5 µM (inactive) |  |
| Sc1cnnc2ccc(Br)cc12 | 32.1 µM (inactive) | 86.1 µM (inactive) | > 100 µM (inactive) |  | 27.4 µM (inactive) | 34.7 µM (inactive) | 78.3 | 36.1 µM (inactive) | 32.3 µM (inactive) | 58.7 µM (inactive) | 53.3 µM (inactive) | 49.3 µM (inactive) | 42.7 µM (inactive) | > 100 µM (inactive) | 34.9 µM (inactive) | 30.3 µM (inactive) | 50.4 µM (inactive) | 33 µM (inactive) | 34.6 µM (inactive) | 52 µM (inactive) |
| Cn1c(N)nc(-c2ccc(Cl)cc2)c1SSc1c(-c2ccc(Cl)cc2)nc(N)n1C | 1.82 µM (inactive) | 4.23 µM (inactive) | 1.4 µM (inactive) | 1.84 µM (inactive) | 2.05 µM (inactive) |  | 1.77 | 12.8 µM (inactive) | 2.3 µM (inactive) | 2.77 µM (inactive) | 14.3 µM (inactive) | 37.2 µM (inactive) | 1.97 µM (inactive) | 2.86 µM (inactive) | 1.85 µM (inactive) | 1.82 µM (inactive) | 1.85 µM (inactive) | 1.71 µM (inactive) | 7.82 µM (inactive) |  |
| COC(=O)CCCc1ccc2c(c1)CC1(Cc3ccccc3C1)C2 | 20.1 µM (inactive) | 26 µM (inactive) | > 100 µM (inactive) | 41.1 µM (inactive) | 20.6 µM (inactive) | 53.6 µM (inactive) | 6.28 | 58.9 µM (inactive) | > 100 µM (inactive) |  | 59.2 µM (inactive) | > 100 µM (inactive) | > 100 µM (inactive) | > 100 µM (inactive) | 86.1 µM (inactive) | 62.2 µM (inactive) | > 100 µM (inactive) | > 100 µM (inactive) | 70.1 µM (inactive) |  |
| Cn1c(=O)n2n(c1=O)C1C(=CC2)C2C=CC1n1c(=O)n(C)c(=O)n12 (stereo not given) | > 100 µM (inactive) | > 100 µM (inactive) | > 100 µM (inactive) | > 100 µM (inactive) | > 100 µM (inactive) |  | > 100 | > 100 µM (inactive) | > 100 µM (inactive) | > 100 µM (inactive) | > 100 µM (inactive) | > 100 µM (inactive) | > 100 µM (inactive) | > 100 µM (inactive) | > 100 µM (inactive) | > 100 µM (inactive) | > 100 µM (inactive) | > 100 µM (inactive) |  |  |
| COc1cc(NS(C)(=O)=O)ccc1Nc1ccnc2ccc3[nH]ccc3c12 | 15.3 µM (inactive) | 12.2 µM (inactive) | 11.6 µM (inactive) | 13.1 µM (inactive) | 15.6 µM (inactive) | 15.6 µM (inactive) | 58.3 | 18.3 µM (inactive) | 17.8 µM (inactive) | 11 µM (inactive) | 16.8 µM (inactive) | 18.9 µM (inactive) | 11.9 µM (inactive) | 15.8 µM (inactive) | 40.2 µM (inactive) | 15.3 µM (inactive) | 13.8 µM (inactive) |  |  |  |
| CCOC(=O)/C=C(\C(=O)OCC)n1ccc(=O)n(Cc2cnnn2COCCOC(C)=O)c1=O | 21.9 µM (inactive) | 9.25 µM (inactive) | 17.6 µM (inactive) | 14.3 µM (inactive) | 8.59 µM (inactive) | 6.4 µM (inactive) | 7.67 | 21.6 µM (inactive) | 16.1 µM (inactive) | 16.5 µM (inactive) | 23 µM (inactive) | 16.8 µM (inactive) |  | 18.9 µM (inactive) | 16.8 µM (inactive) | 11 µM (inactive) | 16.1 µM (inactive) | 2.36 µM (inactive) | 17.9 µM (inactive) |  |
| CSc1nc2c(c(N(C)C)n1)C=Nn1c(nc3ccccc31)S2 | 52.1 µM (inactive) | 57.7 µM (inactive) | 78.2 µM (inactive) | > 100 µM (inactive) | > 100 µM (inactive) |  | > 100 | 69 µM (inactive) | 83 µM (inactive) | 60.4 µM (inactive) | > 100 µM (inactive) | > 100 µM (inactive) | 25.7 µM (inactive) | 84.3 µM (inactive) | 51.1 µM (inactive) | > 100 µM (inactive) | > 100 µM (inactive) |  | 70.5 µM (inactive) |  |
| CC(C)(O)C1OCC(C2CCC3(C)C4=CCC5C(C)(C)C(O)CCC5(C)C4CCC23C)CC1O (stereo not given) | 14.7 µM (inactive) | 14.5 µM (inactive) | 15.3 µM (inactive) | 10.5 µM (inactive) | 15.5 µM (inactive) | 11.6 µM (inactive) | 14.8 | 14.1 µM (inactive) | 14.9 µM (inactive) | 16.1 µM (inactive) | 16.7 µM (inactive) | 13 µM (inactive) | 12.6 µM (inactive) |  | 16 µM (inactive) | 17.1 µM (inactive) | 14 µM (inactive) | 13.6 µM (inactive) | 16.6 µM (inactive) |  |
| O=c1cc(N2CCOCC2)[nH]c(=O)n1-c1cccc(C(F)(F)F)c1 | > 100 µM (inactive) | > 100 µM (inactive) | 20.7 µM (inactive) |  | > 100 µM (inactive) | > 100 µM (inactive) | > 100 | > 100 µM (inactive) | > 100 µM (inactive) | > 100 µM (inactive) | > 100 µM (inactive) | > 100 µM (inactive) | > 100 µM (inactive) | > 100 µM (inactive) | > 100 µM (inactive) | > 100 µM (inactive) | > 100 µM (inactive) | > 100 µM (inactive) | > 100 µM (inactive) | > 100 µM (inactive) |
| c1ccc2nc3c(nc2c1)sc1ccccc13 | 30.9 µM (inactive) | 26.7 µM (inactive) | 30.5 µM (inactive) |  | 94.4 µM (inactive) | 26.5 µM (inactive) | 58.9 | 16.4 µM (inactive) | 14.9 µM (inactive) | 20.7 µM (inactive) | 27.4 µM (inactive) | 18.6 µM (inactive) |  | 30.7 µM (inactive) | 23.7 µM (inactive) | 29.4 µM (inactive) | 47.4 µM (inactive) | 16.4 µM (inactive) | 32.9 µM (inactive) | 41.2 µM (inactive) |
| CCCCCCCCCCCCCCCCOCC(CC(F)(F)P(=O)(O)O)OC(C)=O (stereo not given) | > 50 µM (inactive) | > 50 µM (inactive) | > 50 µM (inactive) | > 50 µM (inactive) | > 50 µM (inactive) | > 50 µM (inactive) | > 50 | > 50 µM (inactive) | > 50 µM (inactive) | > 50 µM (inactive) | > 50 µM (inactive) | > 50 µM (inactive) | > 50 µM (inactive) | 15.1 µM (inactive) | > 50 µM (inactive) | > 50 µM (inactive) | > 50 µM (inactive) |  | > 50 µM (inactive) |  |
| NC(=O)c1nnn(-c2ccccc2)c1O | > 100 µM (inactive) | > 100 µM (inactive) | > 100 µM (inactive) | > 100 µM (inactive) | > 100 µM (inactive) | > 100 µM (inactive) | > 100 | > 100 µM (inactive) | > 100 µM (inactive) | > 100 µM (inactive) | > 100 µM (inactive) | > 100 µM (inactive) |  | > 100 µM (inactive) | > 100 µM (inactive) | > 100 µM (inactive) | > 100 µM (inactive) | > 100 µM (inactive) | > 100 µM (inactive) |  |
